From patent publication US20080038321A1, “PROPHYLACTIC/THERAPEUTIC COMPOSITIONS FOR LIVER DISEASES” (Ajinomoto Co., Inc., priority 2004, published 2008) come the findings set out here.

Series [1] deals with TRB3. In words: Suppressive effects of amino acids on TRB3 expression in cultured hepatocytes (Fao cells, quantitative PCR). It counts as cell-based, rat. The following applies: 3 h, minus amino acid medium plus one L-amino acid 1 mM (or standard medium), mRNA, minus amino acid medium = 1.00, n = 4, mean ± SD. As to the method:
Suppressive effects of twenty-two amino acids on TRB3 expression in rat hepatic cancer-derived Fao cells were examined.
The standard medium is a medium corresponding to the minus amino acid medium, except for further containing amino acids listed in Table 2.
RNAs were extracted from the cultured cells, the expression levels of TRB3 gene were determined through quantitative polymerase chain reaction (PCR), and the suppressive effects of amino acids on TRB3 expression were determined and compared with data of TRB3 expression induced upon amino acid starvation. The gene expression was corrected with reference to β-actin expression level. The correction was carried out in the same manner in the after-mentioned genes.
The data were corrected and expressed while taking the average of TRB3 mRNA levels after three-hour cultivation in the minus amino acid medium as 1.00.

Series [2] relates to glucose-6-phosphatase (G6Pase). In words: Effect of L-Asp on G6Pase expression suppressive action of insulin in Fao cells (quantitative PCR). It counts as cell-based, rat. The conditions noted are these: 6 h, no insulin = 1.00. The method, then: To verify whether an amino acid showing a TRB3 expression suppressive action actually increases the insulin action on hepatocytes, how L-Asp acts on glucose-6-phosphatase (G6Pase) expression suppressive action of insulin in rat hepatic cancer-derived Fao cells was studied.
Fao cells were inoculated on a 24-well plate and cultured overnight. Thereafter, 0, 0.3, and 1.0 mM L-Asp and 0, 10^−10, 10^−8, and 10^−6 M insulin were added respectively to a basal medium corresponding to RPMI 1640 medium containing no glucose but 0.1% BSA, except with L-Asp being removed therefrom, and the cells were further cultivated for six hours. RNAs were extracted from the cultured cells, and the expression levels of G6Pase were determined through quantitative PCR.
The G6Pase expression level in −Asp RPMI medium added with no insulin is defined as 1.00.
The values in the parentheses are values while defining the G6Pase expression levels in −Asp RPMI medium at respective insulin concentrations as 1.00, respectively.

The subject of series [3] is TRB3. The series can be described thus: TRB3 mRNA in Fao cells with L-Asp, L-Ala or both (quantitative PCR). The conditions noted are these: 3 h, L-Asp 0.05 mM, L-Ala 0.03 mM or both. It is filed as cell-based, rat. As to the method: (§1) Whether the suppressive effect of L-Asp on TRB3 expression in rat hepatocyte-derived Fao cells is increased by adding L-Ala as another amino acid was studied. Whether the expression of HNF-4α is increased was also studied. Fao cells were inoculated on a 24-well plate to an amount of 2×10^5 cells/well, and the cells were cultivated in a 10% fetal bovine serum-containing RPMI 1640 medium (supplied from Nacalai Tesque, Inc.; Code No. 30264-85) at 37° C. in an atmosphere of 5% CO2 overnight. On the following day, the medium was replaced with one of a 10% fetal bovine serum-containing RPMI medium from which all amino acids had been removed (minus amino acid medium; Table 1) and media corresponding to the minus amino acid medium, except with L-Asp (concentration: 0.05 mM), L-Ala (concentration: 0.03 mM), or both added, and the cells were further cultivated at 37° C. in 2.5% CO2 atmosphere for three hours. RNAs were extracted from the cultured cells, and the TRB3 mRNA levels and the HNF-4α mRNA levels were determined through quantitative polymerase chain reaction (PCR) (Table 10).

Series [4] concerns HNF-4α. In words: HNF-4α mRNA in Fao cells with L-Asp, L-Ala or both (quantitative PCR). It counts as cell-based, rat. The conditions noted are these: 3 h, L-Asp 0.05 mM, L-Ala 0.03 mM or both. The method, then: as §1
The subject of series [5] is TRB3. In words: Suppressive effects of amino acids on TRB3 expression in cultured hepatocytes (Fao cells, quantitative PCR). It is filed as cell-based, rat. The conditions noted are these: other experiments; 1 mM.
Series [6] deals with GK rats fed with high-fat diets. In words: GK rats fed with high-fat diets: body weight, fasting glucose, insulin, triglyceride, liver triglyceride. The conditions noted are these: HFD with about 6% L-Asp or 0.01% pioglitazone.
Setting [7] is: before administration (baseline).

Take `NC(=O)C[C@H](N)C(=O)O` [asparagine]: the TRB3 expression level result in series [1] was “do not show significantly suppressed TRB3 expression”.
With `N[C@@H](CS)C(=O)O` [cysteine], in series [1], the TRB3 expression level result is listed as “do not show significantly suppressed TRB3 expression”.
For the molecule `O=C(O)[C@@H]1CCCN1` [proline], the TRB3 expression level result in series [1] is “do not show significantly suppressed TRB3 expression”.
Regarding `C[C@@H](O)[C@H](N)C(=O)O` [threonine], the TRB3 expression level result in series [1] is recorded as “do not show significantly suppressed TRB3 expression”.
On the same count and under the same terms, for `N[C@@H](CCC(=O)O)C(=O)O` [glutamic acid] the value was “do not show significantly suppressed TRB3 expression”; for `O=C(O)[C@@H]1C[C@@H](O)CN1` [hydroxyproline], “do not show significantly suppressed TRB3 expression”; for `N=C(N)NCCC[C@H](N)C(=O)O` [arginine], “do not show significantly suppressed TRB3 expression”.
For the molecule `N[C@@H](CSSC[C@H](N)C(=O)O)C(=O)O` [L-Cyt, cystine], the TRB3 expression level in series [1] is on record as 0.487 ± 0.13; in series [1] (listed as cystine), “significantly suppressed TRB3 expression”.
As for `CC[C@H](C)[C@H](N)C(=O)O` [isoleucine], the TRB3 expression level entry in series [1] is “do not show significantly suppressed TRB3 expression”.
As for “insulin: insulin added to the Fao cell culture medium at 10^-10 to 10^-6 M [reference compound]”, the G6Pase expression level in series [2] (insulin 10^-6 M alone in -Asp RPMI) is 0.023 (1.00); in series [2] (insulin 10^-8 M alone in -Asp RPMI) it was 0.032 (1.00); in series [2] (insulin 10^-10 M alone in -Asp RPMI) it was 0.148 (1.00).
As for `NCCCC[C@H](N)C(=O)O` [lysine], the TRB3 expression level result in series [1] was “do not show significantly suppressed TRB3 expression”.
Consider `NCC(=O)O` [L-Gly, glycine], for which the figures for the TRB3 expression level in series [1] and in series [1] (listed as glycine) were 0.665 ± 0.12 and “significantly suppressed TRB3 expression”, respectively.
In the case of `CC(C)[C@H](N)C(=O)O` [valine], the TRB3 expression level result in series [1] is recorded as “do not show significantly suppressed TRB3 expression”.
For `NC(=O)CC[C@H](N)C(=O)O` [L-Gln, glutamine], the results for the TRB3 expression level in series [1] and in series [1] (listed as glutamine) were 0.750 ± 0.15 and “significantly suppressed TRB3 expression”, respectively.
In the case of `N[C@@H](Cc1c[nH]cn1)C(=O)O` [L-His, histidine], the TRB3 expression level in series [1] is 0.643 ± 0.19; in series [1] (listed as histidine), “significantly suppressed TRB3 expression”.
`N[C@@H](CO)C(=O)O` [serine]: the TRB3 expression level result in series [1] was “do not show significantly suppressed TRB3 expression”.
The same measure, in the same setting: next, `CSCC[C@H](N)C(=O)O` [methionine]: “do not show significantly suppressed TRB3 expression”; `N[C@@H](Cc1ccc(O)cc1)C(=O)O` [tyrosine]: “do not show significantly suppressed TRB3 expression”.
Turning to `N[C@@H](Cc1c[nH]c2ccccc12)C(=O)O` [tryptophan], the TRB3 expression level entry in series [1] is given as “do not show significantly suppressed TRB3 expression”.
With `C[C@H](N)C(=O)O` [Ala, L-alanine], the “TRB3 mRNA level” value in series [3] (minus amino acid medium = 1.00) is given as 0.43. Further, in series [3] (of minus amino acid medium), the “expression level of TRB3 mRNA” value came to 43%. In series [4], the “expression level of HNF-4α mRNA” value is listed as “not increased”. Besides, the “HNF4α mRNA level” value in series [4] (minus amino acid medium = 1.00) was 0.80.
Take `C[N+](C)(C)CC(=O)O` [betaine, reference compound]: the “suppressive effect on TRB3 expression” value in series [5] is “does not show a suppressive effect”.
As for `N[C@@H](Cc1ccccc1)C(=O)O` [phenylalanine], in series [1], the TRB3 expression level entry is “do not show significantly suppressed TRB3 expression”.
The same measure, in the same setting: for `CC(C)C[C@H](N)C(=O)O` [leucine] the value was “do not show significantly suppressed TRB3 expression”.
`CCc1ccc(CCOc2ccc(CC3SC(=O)NC3=O)cc2)nc1` (stereo not shown) [Pio, pioglitazone, reference compound]: in series [6] (setting [7]), the “Fasting blood glucose level” value was 121 ± 37 mg/dL, the Fasting insulin level was found to be 0.4 ± 0.3 ng/mL and the Fasting triglyceride level worked out at 92 ± 19 mg/dL. In series [6] (before administration (baseline), n = 6), the Body weight is 222 ± 10 g. In series [6] (week 3), the “Fasting blood glucose level” value is 127 ± 5 mg/dL, the Fasting insulin level turned out to be 1.9 ± 0.2 ng/mL and the Fasting triglyceride level was 97 ± 16 mg/dL. In addition, in series [6] (week 6), the “Fasting blood glucose level” value was found to be 109 ± 8 mg/dL, the Fasting insulin level was found to be 1.3 ± 0.5 ng/mL, the Fasting triglyceride level was 75 ± 12 mg/dL and the “Triglyceride content in liver” value was determined as 36 ± 8 mg/g.
